The values below are quoted from earlier work in patent US5613958A, “Transdermal delivery systems for the modulated administration of drugs” (PP Holdings Inc., priority 1995, dated 1997).

SMILES strings stand for the structures.

For the data set the following is noted: for accumulation in plasma: during continuous ISDN therapy.

Consider `O=[N+]([O-])O[C@@H]1CO[C@H]2[C@@H]1OC[C@@H]2O` [IS-5-MN, isosorbide 5-mononitrate], for which the accumulation in plasma result was “accumulate in the plasma”. Besides, the antianginal efficacy entry (dose regimens letting IS-5-MN fall below 100 ng/ml before next dose) is on record as “continuous antianginal efficacy”. For the same compound, the rate of elimination entry (metabolite of ISDN) is reported as “slowest rate of elimination”.
Turning to `O=[N+]([O-])O[C@H]1CO[C@H]2[C@@H]1OC[C@H]2O` [IS-2-MN, isosorbide 2-mononitrate], the accumulation in plasma entry is recorded as “accumulate in the plasma”.
